Laboratory results from publication PMC5669010 (AIDS Research and Therapy, 2017).
Like-named read-outs stand apart in the source and are kept apart here. Values belong to the molecule of their own block, whether it stands above or below them.

Tests used:
[1] = cited from earlier work
[2] = test system: wild-type (non-protease inhibitor-resistant) virus; conditions: cited from earlier work
[3] = human, in vivo, 24 h
Procedure: (§1) Plasma samples were frozen and stored at – 80 °C until analysis.
(§2) Addition of elvitegravir and cobicistat to the method was partly validated, including selectivity, linearity, accuracy and recovery, inter- and intra-run repeatability, and stability.
(§3) Elvitegravir and cobicistat concentrations were compared to historical controls.

clinical = conditions: human, in vivo, Elvitegravir Ctrough,ss, individual patients
Procedure: as §1, §2, §3

[4] = 60 subjects, darunavir 800 mg/cobicistat 150 mg with two NRTIs
[5] = population PK data for E/C/F/TDF, n = 419

SMILES: CC(C)OC(=O)[C@H](C)N[P@](=O)(CO[C@H](C)Cn1cnc2c(N)ncnc21)Oc1ccccc1 [TAF, tenofovir alafenamide]
Plasma concentrations of TAF ([1]; PK substudy of E/C/F/TAF plus darunavir switch study): at the lower end of the efficacious range

SMILES: COC(=O)N[C@H](C(=O)N[C@@H](Cc1ccccc1)[C@@H](O)CN(Cc1ccc(-c2ccccn2)cc1)NC(=O)[C@@H](NC(=O)OC)C(C)(C)C)C(C)(C)C [atazanavir]
Effect of coadministration with elvitegravir/cobicistat on atazanavir trough levels ([1]; human, in vivo): significant lowering of atazanavir trough levels

SMILES: CC(C)c1nc(CN(C)C(=O)N[C@@H](CCN2CCOCC2)C(=O)N[C@H](CC[C@H](Cc2ccccc2)NC(=O)OCc2cncs2)Cc2ccccc2)cs1 [cobicistat]
Cobicistat 24-h level, mean ([1]; 59 HIV-infected patients, darunavir/cobicistat with emtricitabine and tenofovir DF): 33 ng/mL | Cobicistat C0h, mean [1, 4]: 76 ng/mL | Cobicistat Cmax, mean [1, 4]: 991 ng/mL | Cobicistat tmax, median [1, 4]: 3.5 h | Cobicistat 24-h concentration, mean ([1]; patients taking E/C/F/TDF with darunavir): 20.2 ng/mL

SMILES: CC(C)CN(C[C@@H](O)[C@H](Cc1ccccc1)NC(=O)O[C@H]1CO[C@H]2OCC[C@H]21)S(=O)(=O)c1ccc(N)cc1 [darunavir]
Half maximal effective concentration (EC50) ([2]; wild-type (non-protease inhibitor-resistant) virus): 0.055 µg/mL | Protein-adjusted 50% inhibitory concentration (IC50) ([2]; wild-type virus): 0.055 µg/mL | Darunavir Cmax, mean [1, 4]: 7663 ng/mL | Darunavir tmax, median [1, 4]: 3.5 h

Elvitegravir Ctrough,ss relative to protein-adjusted IC95 (45 ng/mL) [3]: more than 2 fold | Elvitegravir Ctrough,ss, individual patients [3]: 82 ng/mL | concentration at 24 h (clinical): < 80 ng/mL
SMILES: COc1cc2c(cc1Cc1cccc(Cl)c1F)c(=O)c(C(=O)O)cn2[C@H](CO)C(C)C [elvitegravir]
Protein-adjusted 95% inhibitory concentration (IC95) ([2]; wild type virus): 0.045 µg/mL | Elvitegravir Ctrough,ss, mean ([1]; E/C/F/TAF + DRV, N 15): 464 ng/mL | Elvitegravir Ctrough,ss, mean ([1]; E/C/F/TDF + DRV, N 24): 234 ng/mL | Elvitegravir Ctrough,ss, mean ([1]; E/C/F/TDF without darunavir, N 32): 250 ng/mL | Elvitegravir Ctrough,ss, mean ([1]; E/C/F/TDF without darunavir, N 419, population pharmacokinetic estimate): 451 ng/mL | Elvitegravir Cmax, mean [1, 5]: 1731 ng/mL | Elvitegravir tmax [1, 5]: 4.0 h
